The species entered for this test is Mus musculus. Nature of the test: Antimalarial activity was evaluated against Plasmodium berghei in female CD1 mice (Mus musculus) (20-25g). The class given is functional.

For two compounds, ED50 results are on record in ChEMBL document CHEMBL1128042, “The effect of fluorine substitution on the haemotoxicity of Primaquine” (1995).

SMILES strings stand for the structures.

What is called ED50 is the dose that gives a 50% effect, or the effect in half of the subjects. A low value points to an effect at a small dose.

With `COc1cc(NC(C)CCCN)c2ncccc2c1` (configuration not stated) [PRIMAQUINE], the 50% effect level (ED50) was put at a dose of 2.2 µmol/kg. As for `COc1cc(NC(C)CCCN)c2ncccc2c1F` (configuration not stated), it took a dose of 7.78 µmol/kg to reach the 50% effect level (ED50).
